Experimental data reported in PMC6028883, “A highly glucose-tolerant GH1 β-glucosidase with greater conversion rate of soybean isoflavones in monogastric animals” (Journal of Industrial Microbiology & Biotechnology, 2018).

Legend:
Bgl3A = molecular target: T1, Bgl3A (Evansstolkia leycettana, UniProt A0A1B0VFN7); test: inhibition of daidzin hydrolysis, HPLC; assay type: biochemical; conditions: 0.5 mM daidzin, glucose printed as 10 mM but 80 mM stock diluted fourfold; pH 6.5, 37 °C, 5 min
T1 construct: laboratory stock enzyme
T1 sequence (A0A1B0VFN7 entry or part of it): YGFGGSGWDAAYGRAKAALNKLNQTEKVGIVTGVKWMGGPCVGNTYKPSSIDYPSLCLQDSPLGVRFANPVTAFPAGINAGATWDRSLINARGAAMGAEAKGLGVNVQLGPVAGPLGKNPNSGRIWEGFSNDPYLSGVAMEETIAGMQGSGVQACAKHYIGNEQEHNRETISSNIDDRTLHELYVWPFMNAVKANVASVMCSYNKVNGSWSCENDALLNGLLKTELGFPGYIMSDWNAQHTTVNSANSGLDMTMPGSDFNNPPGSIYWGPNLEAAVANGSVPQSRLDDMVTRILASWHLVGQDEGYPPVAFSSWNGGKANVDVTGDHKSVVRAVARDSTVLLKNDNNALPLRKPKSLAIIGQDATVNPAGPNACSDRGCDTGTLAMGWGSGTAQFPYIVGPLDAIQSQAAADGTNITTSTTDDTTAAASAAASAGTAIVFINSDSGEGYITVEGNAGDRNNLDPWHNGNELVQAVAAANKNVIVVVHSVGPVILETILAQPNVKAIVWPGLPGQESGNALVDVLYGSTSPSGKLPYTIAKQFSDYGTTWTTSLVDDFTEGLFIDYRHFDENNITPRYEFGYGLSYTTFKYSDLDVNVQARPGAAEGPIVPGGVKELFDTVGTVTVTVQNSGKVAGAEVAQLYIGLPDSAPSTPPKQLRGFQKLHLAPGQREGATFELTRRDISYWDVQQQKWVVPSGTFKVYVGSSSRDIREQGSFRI

AsBG1 = AsBG1 (Alicyclobacillus sp. A4, UniProt A0A220YLM5); test: inhibition of cellobiose hydrolysis, ion exchange chromatography; assay type: biochemical; conditions: read-out: % inhibition at 10 mM
AsBG1, sequence (A0A220YLM5 1-454 limits assumed): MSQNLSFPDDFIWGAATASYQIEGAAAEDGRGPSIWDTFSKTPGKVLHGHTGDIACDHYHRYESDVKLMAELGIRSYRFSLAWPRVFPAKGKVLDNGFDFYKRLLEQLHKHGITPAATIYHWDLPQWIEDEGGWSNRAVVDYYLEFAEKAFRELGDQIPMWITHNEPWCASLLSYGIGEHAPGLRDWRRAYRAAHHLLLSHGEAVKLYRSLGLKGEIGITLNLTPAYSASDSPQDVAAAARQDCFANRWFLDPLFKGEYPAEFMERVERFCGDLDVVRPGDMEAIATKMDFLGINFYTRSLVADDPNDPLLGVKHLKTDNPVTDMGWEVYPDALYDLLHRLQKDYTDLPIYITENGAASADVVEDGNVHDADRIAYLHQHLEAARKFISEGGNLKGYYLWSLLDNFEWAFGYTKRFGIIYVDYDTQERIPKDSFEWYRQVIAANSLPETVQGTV

[1] = system: O=[N+]([O-])c1ccc(O[C@@H]2O[C@H](CO)[C@@H](O)[C@H](O)[C@H]2O)cc1; test: initial rate, Lineweaver-Burk plot; assay type: biochemical, Alicyclobacillus sp. A4; conditions: pH 6.5, 55 °C, 5 min, 0.2-1.5 mM pNPG

| inhibition at 10000 µM (AsBG1) [%] | Compound | inhibition of daidzin hydrolysis, HPLC (Bgl3A) | Km [1] [µM] |
| --- | --- | --- | --- |
| ~60 | OC[C@H]1OC(O)[C@H](O)[C@@H](O)[C@@H]1O (stereo partly drawn) [glucose] | the conversion efficiency of daidzin by Bgl3A was seriously impeded by glucose | – |
| – | AsBG1 (Alicyclobacillus sp. A4) | – | 400 |
